Data on nine compounds can be found in US20240034736A1, “HSD17B13 INHIBITORS AND USES THEREOF” (FL2022-001, Inc., priority 2020, published 2024).

Molecules are shown by their SMILES.

Recombinant human HSD17B13 enzyme, sequence (Q7Z5P4 20-300): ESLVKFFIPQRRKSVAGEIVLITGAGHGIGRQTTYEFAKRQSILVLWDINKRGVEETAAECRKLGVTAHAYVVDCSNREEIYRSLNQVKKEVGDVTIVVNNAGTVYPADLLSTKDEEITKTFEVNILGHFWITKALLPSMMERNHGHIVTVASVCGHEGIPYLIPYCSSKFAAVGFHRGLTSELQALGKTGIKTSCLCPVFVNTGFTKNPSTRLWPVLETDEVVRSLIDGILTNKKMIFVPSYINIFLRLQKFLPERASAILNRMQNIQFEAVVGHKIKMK

The first assay addresses Recombinant human HSD17B13 enzyme (Homo sapiens (Human), UniProt Q7Z5P4). Kind of assay: HSD17b13 NAD(P)H-Glo Biochemical Assay. As to conditions: 50 uM estradiol, 1 mM NAD+; read-out: HSD17β13 IC50. In a few lines: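 Recombinant human HSD17B13 was pre-incubated with inhibitor for 20 min at RT in 20 mM Tris pH 7.4 with 0.002% Tween-20 and 0.02% BSA. Reaction then ran with 50 uM estradiol and 1 mM NAD+ (final) for 3 h at 37° C. NADH formed was detected by NAD(P)H-Glo luminescence after 1 h at RT.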
A word on the IC50: it is the concentration at which inhibition is half-maximal. On to `CS(=O)(=O)N1CCN(c2cc3cnn(-c4cc(O)c(F)c(C(F)(F)F)c4)c3nn2)CC1` [Compound 28.08, 2-Fluoro-5-(5-(4-(methyl-sulfonyl)piperazin-1-yl)-1H-pyrazolo[3,4-c]pyridazin-1-yl)-3-(trifluoromethyl)phenol], for which the IC50 fell in the range of 1000 to 30000 nM. The same measure, in the same setting: for `CNC(=O)C1(c2ccc3c(cnn3-c3cc(O)c(F)c(F)c3)c2)CCN(S(C)(=O)=O)CC1` [Compound 29, 4-(1-(3,4-Difluoro-5-hydroxyphenyl)-1H-indazol-5-yl)-N-methyl-1-(methylsulfonyl)piperidine-4-carboxamide] the value was 1000 to 30000 nM; for `O=S(=O)(c1ccc2c(cnn2-c2cc(O)c(F)c(F)c2)c1)N1CCCCC1` [Compound 30, 2,3-Difluoro-5-(5-(piperidin-1-ylsulfonyl)-1H-indazol-1-yl)phenol], 1000 to 30000 nM. As to `O=S(=O)(c1ccc2c(cnn2-c2cc(O)c(F)c(F)c2)c1)N1CCOCC1` [Compound 30.01, 2,3-Difluoro-5-(5-(morpholinosulfonyl)-1H-indazol-1-yl)phenol], the IC50 is 100 to 1000 nM. On to `CS(=O)(=O)N1CCN(c2ccc3c(cnn3-c3cc(C(F)(F)F)cc(O)n3)c2)CC1` [Compound 31, 6-(5-(4-(Methylsulfonyl)piperazin-1-yl)-1H-indazol-1-yl)-4-(trifluoromethyl)pyridin-2-ol], for which the concentration for half-maximal inhibition (IC50) was 100 to 1000 nM.

As for `CS(=O)(=O)N1CCN(c2ccc3nn(-c4cc(C(F)(F)F)cc(O)n4)cc3c2)CC1` [Compound 31.01, 6-(5-(4-(Methylsulfonyl)-piperazin-1-yl)-2H-indazol-2-yl)-4-(trifluoromethyl)-pyridin-2-ol], the IC50 was 1000 to 30000 nM. The same measure, in the same setting: as for `CS(=O)(=O)N1CCN(c2ccc3c(cnn3-c3cc(O)cc(C(F)(F)F)n3)c2)CC1` [Compound 31.02, 2-(5-(4-(Methylsulfonyl)-piperazin-1-yl)-1H-indazol-1-yl)-6-(trifluoromethyl)-pyridin-4-ol], the figure is 1000 to 30000 nM; as for `CS(=O)(=O)N1CCN(c2ccc3nn(-c4cc(O)cc(C(F)(F)F)n4)cc3c2)CC1` [Compound 31.03, 2-(5-(4-(Methylsulfonyl)-piperazin-1-yl)-2H-indazol-2-yl)-6-(trifluoromethyl)-pyridin-4-ol], 1000 to 30000 nM.

The same assay, now with this note: read-out: HSD17β13 inhibition at 10 uM.
A word on the inhibition: it is the change of the read-out against control, counted positive when it falls. With `CN(C)C(=O)C1(c2ccc3c(cnn3-c3cc(O)c(F)c(F)c3)c2)CCN(S(C)(=O)=O)CC1` [Compound 29.01, 4-(1-(3,4-Difluoro-5-hydroxy-phenyl)-1H-indazol-5-yl)-N,N-dimethyl-1-(methyl-sulfonyl)piperidine-4-carbox-amide], the inhibition at 10 µM was < 20%.
